In patent US5024839A, “Dactylocycline A and dactylocycline B” (E. R. Squibb & Sons, Inc., priority 1987, dated 1991):
Values after ≈ are worked out from the molar mass of the structure shown.

Tests used:
Type in all cases: cell-based
[1] = test system: gram-positive bacteria, including tetracycline-resistant bacteria; assay: Activity against gram-positive bacteria
Experimental: (§1) The following methodology was used to determine the minimum inhibitory concentration (hereinafter referred to as MIC) of the compounds of this invention. The test organisms were grown in 20 ml of Antibiotic Assay Broth (Difco) by inoculating the broth (in tubes) with a loopful of the organism from a BHI (Difco) agar slant. The inoculated tubes were incubated at 37° C. for 18 to 24 hours. These cultures are assumed to contain 10^9 colony forming units (CFU) per ml. The cultures were diluted 1:100 to give a final inoculum level of 10^7 CFU; dilutions were made with Yeast Beef Broth (Difco). The test compounds were dissolved in an appropriate diluent at a concentration of 1,000 μg/ml. Two-fold dilutions were made in Yeast Beef Broth (Difco) resulting in a range from 1000 μg/ml to 0.5 μg/ml. A 1.5 ml portion of each dilution was placed into individual petri dishes to which 13.5 ml of K-10 agar was added. The composition of K-10 agar is:
(§2) The final drug concentration in the agar ranged from 100 μg/ml to 0.05 μg/ml. Organism growth control plates containing agar only were prepared and inoculated before and after the test plates. The organisms were applied to agar surface of each plate with a Denly Multipoint Inoculator, which delivers approximately 10^4 CFU on the agar surface.
The plates were incubated at 37° C. for 18 hours and the MICs determined. […]

[2] = test system: Staphylococcus aureus SC2399; assay: MIC (agar dilution, K-10 agar)
Experimental: as §1, §2
(§3) The plates were incubated at 37° C. for 18 hours and the MICs determined. The MIC is the lowest concentration of compound inhibiting growth of the organism.
(§4) The test organisms chosen for this study are pairs of tetracycline-sensitive and tetracycline-resistant strains.

[3] = test system: Staphylococcus aureus SGB 45; assay: MIC (agar dilution, K-10 agar)
Experimental: as §1, §2, §3, §4

[4] = test system: Staphylococcus aureus SGB 42; assay: MIC (agar dilution, K-10 agar)
Experimental: as §1, §2, §3, §4

[5] = test system: Staphylococcus epidermidis SC9087; assay: MIC (agar dilution, K-10 agar)
Experimental: as §1, §2, §3, §4

[6] = test system: Staphylococcus aureus SC10016; assay: MIC (agar dilution, K-10 agar)
Experimental: as §1, §2, §3, §4

[7] = test system: Streptococcus faecalis SC9011; assay: MIC (agar dilution, K-10 agar)
Experimental: as §1, §2, §3, §4

[8] = test system: Streptococcus faecalis SC9776; assay: MIC (agar dilution, K-10 agar)
Experimental: as §1, §2, §3, §4

[9] = test system: Staphylococcus epidermidis SC9052; assay: MIC (agar dilution, K-10 agar)
Experimental: as §1, §2, §3, §4

[10] = Staphylococcus aureus SC2399, K-10 agar, approximately 10^4 CFU, 37° C., 18 hours
[11] = Staphylococcus aureus SGB 45, K-10 agar, approximately 10^4 CFU, 37° C., 18 hours
[12] = Staphylococcus aureus SGB 42, K-10 agar, approximately 10^4 CFU, 37° C., 18 hours
[13] = Staphylococcus epidermidis SC9087, K-10 agar, approximately 10^4 CFU, 37° C., 18 hours
[14] = Staphylococcus aureus SC10016, K-10 agar, approximately 10^4 CFU, 37° C., 18 hours
[15] = Streptococcus faecalis SC9011, K-10 agar, approximately 10^4 CFU, 37° C., 18 hours
[16] = Streptococcus faecalis SC9776, K-10 agar, approximately 10^4 CFU, 37° C., 18 hours
[17] = Staphylococcus epidermidis SC9052, K-10 agar, approximately 10^4 CFU, 37° C., 18 hours

Row | SMILES | activity against gram-positive bacteria [1] | MIC [2, 10] [µg/mL] | MIC [3, 11] [µg/mL] | MIC [4, 12] [µg/mL] | MIC [5, 13] [µg/mL] | MIC [6, 14] [µg/mL] | MIC [7, 15] [µg/mL] | MIC [8, 16] [µg/mL] | MIC [9, 17] [µg/mL] | MIC ([2]; Staphylococcus aureus, SC2399, 18 h) [µg/mL] | MIC ([3]; Staphylococcus aureus, SGB45, 18 h) [µg/mL] | MIC ([4]; Staphylococcus aureus, SGB42, 18 h) [µg/mL] | MIC ([5]; Staphylococcus epidermidis, SC9087, 18 h) [µg/mL] | MIC ([6]; Staphylococcus aureus, SC10016, 18 h) [µg/mL] | MIC ([7]; Enterococcus faecalis, SC9011, 18 h) [µg/mL] | MIC ([8]; Enterococcus faecalis, SC9776, 18 h) [µg/mL] | MIC ([9]; Staphylococcus epidermidis, SC9052, 18 h) [µg/mL]
1 | COc1cc(O)c2c(c1Cl)[C@](C)(O[C@H]1C[C@](C)(NO)[C@@H](OC)[C@H](C)O1)[C@H]1C[C@@]3(O)[C@H](N(C)C)C(=O)C(C(N)=O)=C(O)[C@@]3(O)C(=O)C1=C2O [Dactylocycline A] | active against gram-positive bacteria, including tetracycline-resistant bacteria | 1.6 (≈ 2.29 µM) | 3.1 (≈ 4.44 µM) | 1.6 (≈ 2.29 µM) | 3.1 (≈ 4.44 µM) | 6.3 (≈ 9.02 µM) | 25 (≈ 35.8 µM) | 25 (≈ 35.8 µM) | 6.3 (≈ 9.02 µM) |  |  |  |  |  |  |  | 
2 | COc1cc(O)c2c(c1Cl)C(C)(OC1CC(C)([N+](=O)[O-])C(OC)C(C)O1)C1CC3(O)C(N(C)C)C(=O)C(C(N)=O)=C(O)C3(O)C(=O)C1=C2O (centres unmarked) [Dactylocycline B] | active against gram-positive bacteria, including tetracycline-resistant bacteria | 6.3 (≈ 8.85 µM) | 3.1 (≈ 4.35 µM) | 3.1 (≈ 4.35 µM) | 3.1 (≈ 4.35 µM) | 3.1 (≈ 4.35 µM) | 6.3 (≈ 8.85 µM) | 6.3 (≈ 8.85 µM) | 3.1 (≈ 4.35 µM) |  |  |  |  |  |  |  | 
3 | CN(C)[C@@H]1C(O)=C(C(N)=O)C(=O)[C@@]2(O)C(O)=C3C(=O)c4c(O)cccc4[C@@](C)(O)[C@H]3C[C@@H]12 [Tetracycline, reference compound] |  |  |  |  |  |  |  |  |  | 0.4 (≈ 0.9 µM) | 100 (≈ 225 µM) | 0.2 (≈ 0.45 µM) | 50 (≈ 113 µM) | 100 (≈ 225 µM) | 1.6 (≈ 3.6 µM) | > 100 | 0.8 (≈ 1.8 µM)
